# Legend:
# [1] = tested on: HeLa cells; experiment: protection from cell death in low glucose medium (WST); format: cell-based; conditions: low glucose 0.2 g/l, 5, 10, 20, and 50 μM, 41 hours
# Method: Figure 2 Prevention of cell death and ER stress by KUSs. (a) Photographs of HeLa cells, cultured with DMSO (DMSO) or KUSs (KUS94, KUS121, and KUS187, 20 μM each) for 41 hours in low glucose (0.2 g/l) medium. Scale bar, 100 μm. (b–e) WST (water-soluble tetrazolium salts) values reflecting relative live cell numbers are shown, as optical density (OD) at 450 nm. Error bars indicate SD. (b) WST values of HeLa cells, cultured in low glucose (0.2 g/l) with DMSO (control) or KUSs (50 μM for KUS121; 20 μM for KUS69, KUS94, and KUS187, n = 3) for 41 hours. (c) Cell viability, indicated by WST values of HeLa cells, cultured with tunicamycin (Tm) (0.2 μg/ml) for 41 hours with KUSs (20 μM each, n = 3). […]
# HeLa, HEK293, and PC12 cells were cultured in Dulbecco's modified Eagle's medium (DMEM) with 10% fetal bovine serum. […] Viability of cultured cells was measured by formazan production with an ARVO multilabel counter (Wallac), using WST (water soluble tetrazolium salts)-8 reagent (Cell count reagent SF, Nacalai Tesque, Kyoto, Japan). ATP in cultured cells was measured by luciferase activities with an ARVO multilabel counter, using ATP assay reagent for cells (Toyo B-net, Tokyo, Japan). Acetyl-CoA was measured using a PicoProbe Acetyl CoA assay kit (BioVision, CA, USA) with a Spectra Max multilabel counter (Molecular Devices, CA, USA).
# [2] = tested on: rd10 mice; experiment: rd10 mouse model of retinitis pigmentosa (SD-OCT, electroretinogram, histology, electron microscopy, western blot); format: in vivo; conditions: 21-day-old, 50 mg/kg daily i.p. from day 7, vs control
# Method: Starting 7 days after birth, KUS121 or KUS187 was administered daily (50 mg/kg) by intraperitoneal injection. […] To test the visual function of the mice, dark-adapted electroretinograms were recorded. The amplitude of the a-wave, which represents visual function of photoreceptors, was smaller in the control mice than in the KUS-treated mice (Supplementary Fig. 5b and c). The peak latency of the a-wave, which negatively correlates with visual function of photoreceptors, was delayed in the control mice as compared with the KUS-treated mice (Supplementary Fig. 5d). At age 25 days, the thinning of the outer nuclear layer (ONL) was clearly observed in the control mice (Fig. 5a). The outer nuclear layer and the junction line between the inner segment and outer segment (arrow heads in Fig. 5a), which is generally considered to be positively associated with visual function, were clearly detected in the KUS-treated but not in control mice. […] At age 29 days, the photoreceptor layer was barely detected in SD-OCT images, and electroretinogram records were almost flat in control mice. […]
# Spectral-domain optical coherence tomography (SD-OCT) examinations using Multiline OCT (Heidelberg Engineering, Heidelberg, Germany) were performed[33] in rd10 mice at ages of 21, 25, 29, and 33days. Total retinal thickness (from inner limiting membrane to Bruch membrane) in rd10 mice was measured using volume scan images[33] within a circle 0.366 mm in diameter, the center of which was adjusted to the center of the optic nerve head. […]
# Electroretinogram recording was performed to assess the visual function of rd10 mice at ages of 21, 25, 29, and 33 days. […] Electroretinograms were recorded using a gold loop corneal electrode with a light-emitting diode (Mayo Corp., Inazawa, Japan). […] The electroretinogram response signals were amplified, digitized at 10 kHz with a band-pass filter of 0.3 to 500 Hz, and analyzed (PowerLab 2/25; AD instruments, New South Wales, Australia). […]
compound,measurement,setting,value
Cc1cc(F)ccc1-c1ccc(/N=N/c2cc(S(=O)(=O)O)c3ccccc3c2N)cn1 [KUS121],dose dependence of protective effect,[1],dose-dependent
same,"mean amplitude of the a-wave, dark-adapted electroretinogram",[2],larger than that in control rd10 mice

# Source: article PMC4122966, “Novel VCP modulators mitigate major pathologies of rd10, a mouse model of retinitis pigmentosa” (Scientific Reports, 2014)
